Earlier results, collected in patent publication US10413482B2, “Delamination resistant pharmaceutical glass containers containing active pharmaceutical ingredients” (Corning Incorporated, priority 2011, dated 2019).

Experiments:
[1] = test system: patients whose asthma cannot be adequately controlled with inhalable glucocorticoids; settings: in vivo
[2] = for duration of action: after injection
[3] = test system: patients with moderate to severe ulcerative colitis; settings: in vivo
[4] = not given; remark: listed apart in the source
[5] = test system: patients with acute coronary syndrome (ACS); settings: in vivo
[6] = once-daily
[7] = test system: adults with late-onset LAL Deficiency

For “lebrikizumab: humanized monoclonal antibody against interleukin-13 (IL-13)”, the symptoms of asthma [1] is given as “significantly decrease the symptoms of asthma”.

In the case of relaxin, the shelf-life (approximately pH 5, 5° C., acceptable reduction of 10% in the HPLC main peak area) is given as “at least 2 years”.

In the case of “insulin regular: formulation of recombinant insulin structurally identical to the insulin produced by the human pancreas”, the duration of action [2] is listed as “approximately 8 hours” and the “onset of pharmacologic effect” value ([2]; after subcutaneous administration) is listed as “approximately one-half”.

For insulin degludec, the duration of action [2] is given as “more than 24 hours”.

In the case of “Vedolizumab: humanized monoclonal antibody targeting α4β7 integrin”, the “safety and clinical remission” value [3] is listed as “safe and effective for inducing and maintaining clinical remission”.

In the case of `[Cl][223Ra][Cl]` [Radium-223, Radium-223 dichloride], the half-life [4] is listed as 11.4 days.

For Insulin detemir, the duration of action [2] is given as “up to 24 hours”.

For `COC(=O)[C@H](Cc1cccc(C(=N)N)c1)[C@@H](C)NC(=O)c1ccc(-c2cc[n+]([O-])cc2)cc1` (mixture of isomers) [Otamixaban, reference compound], the major coronary complications [5] is listed as “reduce major coronary complications” and the “degradation during sterilization and storage” value (formulations at pH between 3 and 5) is listed as “decreased otamixaban degradation during sterilization and storage”.

In the case of lixisenatide, the tolerability [6] is listed as “well-tolerated” and the glycemic control ([6]; one-step dose increase, single maintenance dose) is listed as “significantly improved glycemic control”.

B1: SBC-102: recombinant form of the human LAL enzyme (protein, UniProt P38571 77-399, looked up)
Lysosomal acid …: GPKPVVFLQHGLLADSSNWVTNLANSSLGFILADAGFDVWMGNSRGNTWSRKHKTLSVSQDEFWAFSYDEMAKYDLPASINFILNKTGQEQVYYVGHSQGTTIGFIAFSQIPELAKRIKMFFALGPVASVAFCTSPMAKLGRLPDHLIKDLFGDKEFLPQSAFLKWLGTHVCTHVILKELCGNLCFLLCGFNERNLNMSRVDVYTTHSPAGTSVQNMLHWSQAVKFQKFQAFDWGSSAKNYFHYNQSYPPTYNVKDMLVPTAVWSGGHDWLADVYDVNILLTQITNLVFHESIPEWEHLDFIWGLDAPWRLYNKIINLMRKYQ
For B1, the LDL ([7]; same time period) is given as “a reduction in LDL was also observed”, the “total cholesterol, HDL cholesterol, and triglycerides” value ([7]; versus original baseline, p<0.05) is given as “significantly improved” and the liver transaminase levels ([7]; weekly then every other week infusions) is given as “sustained impact of SBC-102 on reducing liver transaminase levels”.
